Measured values taken from patent US20240391954A1, “MC4R AGONIST PEPTIDES” (The Regents of the University of Michigan, priority 2021, published 2024).
Positions of bridges follow the written chain, without caps; N, C: chain ends. Non-standard residues stand in square brackets, D forms with d. Residues, ends and D or L forms follow the SMILES beside them. NMeW = CN[C@@H](Cc1c[nH]c2ccccc12)C(=O)O; 1Nal = N[C@@H](Cc1cccc2ccccc12)C(=O)O; d2Nal = N[C@H](Cc1ccc2ccccc2c1)C(=O)O; NMeH = CN[C@@H](Cc1c[nH]cn1)C(=O)O; NMeR = CN[C@@H](CCCNC(=N)N)C(=O)O; 4Pal = N[C@@H](Cc1ccncc1)C(=O)O; Cit = NC(=O)NCCC[C@H](N)C(=O)O; Nle = CCCC[C@H](N)C(=O)O; Aib = CC(C)(N)C(=O)O

Legend:
Format in all cases: cell-based
human MC3R = target: T1, human MC3R (Homo sapiens, UniProt P41968); test: split-luciferase cAMP sensor assay, agonist mode (measurement window 1), hMC3R; conditions: for Emax: read-out: MC3R cAMP % max activation; for MC4R selectivity vs MC3R: MC4R versus MC3R; for EC50: HEK-293 cells stably expressing hMC3R, read-out: MC3R cAMP EC50
T1 construct: expressed in transfected cells; host or cells: HEK-293 cells stably expressing the GScAMP22F split-luciferase cAMP sensor (parent reporter line from Promega); MC3R clone generated in-house, G418 selection
T1 sequence (P41968 whole entry): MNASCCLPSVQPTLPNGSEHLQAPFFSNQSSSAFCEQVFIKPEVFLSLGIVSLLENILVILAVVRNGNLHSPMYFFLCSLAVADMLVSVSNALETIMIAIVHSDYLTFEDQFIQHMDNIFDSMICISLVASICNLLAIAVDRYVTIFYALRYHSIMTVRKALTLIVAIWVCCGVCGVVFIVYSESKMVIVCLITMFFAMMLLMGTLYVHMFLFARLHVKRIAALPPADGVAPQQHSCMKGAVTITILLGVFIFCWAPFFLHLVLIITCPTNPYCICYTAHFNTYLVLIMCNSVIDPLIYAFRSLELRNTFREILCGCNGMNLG
Method in brief: (§1)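 EC50 values come from a four-parameter variable-slope fit of luminescence in measurement window 1, capturing direct peptide effects on receptor-expressing cells with a cAMP22f luciferase sensor. Cells were preloaded with 4% D-luciferin, serum-free medium; 20 μM forskolin normalized for cell number and transducer efficiency.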

human MC4R = target: T2, human MC4R (Homo sapiens, UniProt P32245); test: split-luciferase cAMP sensor assay, agonist mode (measurement window 1), hMC4R; conditions: agonist mode; for Emax: read-out: MC4R cAMP % max activation; for EC50: HEK-293 cells stably expressing hMC4R, read-out: MC4R cAMP EC50
T2 construct: host or cells: HEK-293 cells stably expressing the GScAMP22F split-luciferase cAMP sensor and hMC4R, G418 selection
T2 sequence (P32245 whole entry): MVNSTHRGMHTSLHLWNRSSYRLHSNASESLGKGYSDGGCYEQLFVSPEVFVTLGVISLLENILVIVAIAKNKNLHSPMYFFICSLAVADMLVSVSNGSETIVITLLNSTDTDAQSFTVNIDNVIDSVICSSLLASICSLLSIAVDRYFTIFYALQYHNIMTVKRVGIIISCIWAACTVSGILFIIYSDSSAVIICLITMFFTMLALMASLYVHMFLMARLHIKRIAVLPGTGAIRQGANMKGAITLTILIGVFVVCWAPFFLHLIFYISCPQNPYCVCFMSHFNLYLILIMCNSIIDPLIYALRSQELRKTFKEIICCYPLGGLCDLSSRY
Method in brief: as §1

human MC1R = target: T3, human MC1R (Homo sapiens, UniProt Q01726); test: split-luciferase cAMP sensor assay, agonist mode, hMC1R; conditions: MC4R versus MC1R
T3 construct: expressed in transfected cells; host or cells: HEK-293 cells stably expressing hMC1R and the GScAMP22F cAMP sensor
T3 sequence (Q01726 whole entry): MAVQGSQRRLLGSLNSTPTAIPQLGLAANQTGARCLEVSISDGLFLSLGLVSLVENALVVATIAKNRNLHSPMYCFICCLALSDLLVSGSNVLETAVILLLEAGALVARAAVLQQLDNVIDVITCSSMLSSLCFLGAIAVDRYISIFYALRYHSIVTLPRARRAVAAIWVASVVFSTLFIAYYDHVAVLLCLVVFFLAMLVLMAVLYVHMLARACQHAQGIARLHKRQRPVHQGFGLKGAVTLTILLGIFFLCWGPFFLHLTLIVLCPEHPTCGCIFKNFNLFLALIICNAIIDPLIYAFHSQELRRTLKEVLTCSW
Description: FIG. 4A-B. (A) Pharmacological properties of exemplary MC4R agonist peptides, including those with improved efficacy in the MC4R+/− mouse (CTX-1211, CTX-1227, and CTX-1228). Concentration-response agonist curves for peptides indicated at the human MC4R (red), human MC3R (blue), human MC5R (green), and human MC1R (black) were determined by a split-luciferase cAMP sensor dynamic assay in HEK-293 cells stably expressing the hMC1R, hMC3R, hMC4R, or hMC5R and the GScAMP22F cAMP sensor. Each data point represents the mean±SEM of two experiments with three replicates each per experiment. Data is normalized to the ECmax of α-MSH. (B) Same as above, for peptides representing reduced activity at the hMC1R. Inset tables indicate EC50 values for the ligand indicated for each receptor.
The assay for the determination of the cAMP response in live cells was described previously. (Yu et al., 2020, Science 368, 428-433; incorporated by reference in its entirety). Cells were seeded at a density of 20,000 cells per well using 384-well poly-D lysine-coated, clear bottom, and black-wall assay plates (Corning Inc. Corning, NJ). Cells were allowed to attach to the plates for 18 to 24 h after which growth media was removed and 20 μl of 4% D-luciferin (Promega) in CO2 independent, serum-free medium (Thermo Fisher Scientific) was added to each well. The luciferase substrate was allowed to permeate the cells for 120 min at 37° C. Intracellular cAMP levels were measured using an FDSS 7000EX Functional Drug Screening System (Hamamatsu Photonics, Hamamatsu, Japan) in the Center for Chemical Genomics at the Life Sciences Institute. This instrument allowed the in-line addition of test-peptides and receptor agonists while simultaneously acquiring the luminescence signal from live cells. Assay read steps were set as follows: baseline acquisition of 2 min, the addition of 10 μl of varying 3× concentrations of test-peptides or vehicle followed by 11 min measurement (measurement window 1), and 10 μl addition of 4× concentration of the endogenous melanocortin agonist α-MSH (Bachem, Bubendorf, Switzerland) followed by an additional 11 min response measurement (measurement window 2). The resulting final concentration of α-MSH was close to the respective receptor EC90 dose for each receptor. Intraplate concentration response curves for α-MSH and SHU-9119 (Phoenix Pharmaceuticals, Burlingame CA) were included as reference controls. A submaximal forskolin (20 μM) concentration was also included to serve as a normalization reference to account for cell number variations and differences in assay transducer efficiency between cell lines.
With this set up it was possible to evaluate the direct effect of the test-peptides on the MC3R and MC4R cell lines during measurement window 1, while the antagonist profile in the presence of EC90 α-MSH was determined on measurement window 2. For data analysis baseline luminescence (i.e. the maximum luminescence signal from the initial 0 to 2 min window) was subtracted from the maximum luminescence obtained during measurement window 1 (2 to 13 min) and measurement window 2 (13 to 24 min) to yield the test-peptide elicited responses. EC50 or IC50 potency values were determined by non-linear regression by fitting the data to a sigmoid four-parameter variable slope model using the GraphPad Prism version 8.4 software package (San Diego CA).

[1] = % maximal activation, agonist mode

| SMILES | Emax (human MC3R; [1]) | MC4R selectivity vs MC3R (human MC3R) | Emax (human MC4R; % maximal activation) | EC50 (human MC4R) | MC4R selectivity vs MC1R (human MC1R) | EC50 (human MC3R; agonist mode) | MC3R cAMP % max activation (human MC3R; [1]) | MC4R cAMP % max activation (human MC4R; % maximal activation) |
| --- | --- | --- | --- | --- | --- | --- | --- | --- |
| CCCC[C@H](NC(=O)[C@H](CCCNC(=N)N)NC(C)=O)C(=O)N[C@H]1CSSC[C@@H](C(N)=O)NC(=O)[C@H](Cc2c[nH]c3ccccc23)NC(=O)[C@H](CCCNC(=N)N)NC(=O)[C@@H](Cc2ccccc2)NC(=O)[C@H](Cc2ccncc2)NC1=O [CTX-1621, Arg-Nle-cyclo(Cys-Pal(4′)-D-Phe-Arg-Trp-Cys)] (Ac-R[Nle]C[4Pal][dF]RWC-NH2; disulfide 3-8 (inferred)) | 15% | 13 | 92% | 2.9 nM | 82 |  |  |  |
| CCCC[C@H](NC(=O)[C@H](CCCNC(=N)N)NC(C)=O)C(=O)N[C@H]1CSSC[C@@H](C(N)=O)NC(=O)[C@H](Cc2ccccc2)NC(=O)[C@H](CCCNC(=N)N)NC(=O)[C@@H](Cc2ccccc2)NC(=O)[C@H](CCCNC(N)=O)NC1=O [CTX-1626, Arg-Nle-cyclo(Cys-Cit-D-Phe-Arg-Phe-Cys)] (Ac-R[Nle]C[Cit][dF]RFC-NH2; disulfide 3-8 (inferred)) | 51% | 1.6 | 83% |  | 3.05 |  |  |  |
| C[C@H]1NC(=O)CSC[C@@H](C(N)=O)NC(=O)[C@H](Cc2c[nH]c3ccccc23)NC(=O)[C@H](CCCNC(=N)N)NC(=O)[C@@H](Cc2ccccc2)NC(=O)[C@H](Cc2c[nH]cn2)NC1=O [CTX-1202, Thioether-cyclo((D-Ala-His-D-Phe-Arg-Trp-Cys)] | 101% | 76 | 104% |  | 0.89 |  |  |  |
| CC(=O)N[C@H]1CSSC[C@@H](C(N)=O)NC(=O)[C@H](Cc2ccccc2)NC(=O)[C@H](CCCNC(=N)N)NC(=O)[C@@H](Cc2ccccc2)NC(=O)[C@H](CCCNC(N)=O)NC(=O)C(C)(C)NC1=O [CTX-1636, cyclo(Cys-Aib-Cit-D-Phe-Arg-Phe-Cys)] (Ac-C[Aib][Cit][dF]RFC-NH2; disulfide 1-7 (inferred)) | 44% | 9.44 | 102% |  | >12 |  |  |  |
| CC(=O)N[C@@H](CCCNC(=N)N)C(=O)N[C@H]1CSSC[C@@H](C(N)=O)NC(=O)[C@H](Cc2c[nH]c3ccccc23)NC(=O)[C@H](CCCNC(N)=O)NC(=O)[C@@H](Cc2ccccc2)NC(=O)[C@H](CCCNC(=N)N)NC(=O)C(C)(C)NC1=O [CTX-1270, Arg-cyclo(Cys-Aib-Arg-D-Phe-Cit-Trp-Cys)] (Ac-RC[Aib]R[dF][Cit]WC-NH2; disulfide 2-8) | 14% | 1.88 | 98% |  | 2.49 | 52 nM |  |  |
| CC(=O)N[C@@H](CCCNC(=N)N)C(=O)N[C@H]1CSSC[C@@H](C(N)=O)NC(=O)[C@@H](Cc2ccc3ccccc3c2)NC(=O)[C@H](CCCNC(=N)N)NC(=O)[C@@H](Cc2ccccc2)NC(=O)[C@H](CCCNC(=N)N)NC(=O)[C@@H](C)NC1=O [CTX-1264, Arg-cyclo(Cys-D-Ala-Arg-D-Phe-Arg-D-Nal(2′)-Cys)] (Ac-RC[dA]R[dF]R[d2Nal]C-NH2; disulfide 2-8 (inferred)) | 44% | 0.29 | 80% | 13 nM | 0.14 | 3.7 nM |  |  |
| C[C@H]1NC(=O)CSC[C@@H](C(N)=O)NC(=O)[C@H](Cc2c[nH]c3ccccc23)N(C)C(=O)[C@H](CCCNC(=N)N)NC(=O)[C@@H](Cc2ccccc2)NC(=O)[C@H](Cc2c[nH]cn2)N(C)C1=O [CTX-1203, Thioether-cyclo(D-Ala-Nme-His-D-Phe-Arg-Nme-Trp-Cys)] ({CH2CO}-[dA][NMeH][dF]R[NMeW]C-NH2; thioether N-6) | 107% | 161 | 109% | 16 nM | 2.32 |  |  |  |
| CC(=O)N[C@@H](CCCNC(=N)N)C(=O)N[C@H]1CSSC[C@@H](C(N)=O)NC(=O)[C@@H](Cc2c[nH]c3ccccc23)NC(=O)[C@H](CCCNC(=N)N)N(C)C(=O)[C@@H](Cc2ccccc2)NC(=O)[C@H](CCCNC(=N)N)NC(=O)[C@@H](C)NC1=O [CTX-1284, Arg-cyclo(Cys-D-Ala-Arg-D-Phe-N-Me-Arg-D-Trp-Cys)] (Ac-RC[dA]R[dF][NMeR][dW]C-NH2; disulfide 2-8) | 45% | 8.11 | 91% |  | 0.15 | 1040 nM |  |  |
| N=C(N)NCCC[C@@H]1NC(=O)[C@@H](Cc2ccccc2)NC(=O)[C@H](CCCNC(N)=O)NC(=O)CNC(=O)CSC[C@@H](C(N)=O)NC(=O)[C@H](Cc2ccccc2)NC1=O [CTX-1655, Thioether-cyclo(Gly-Cit-D-Phe-Arg-Phe-Cys)] ({CH2CO}-G[Cit][dF]RFC-NH2; thioether N-6) |  | Not active |  | > 10000 nM | Not active | > 10000 nM |  |  |
| CC(=O)N[C@@H](CCCNC(=N)N)C(=O)N[C@H]1CSSC[C@@H](C(N)=O)NC(=O)[C@@H](Cc2ccccc2)NC(=O)[C@H](CCCNC(=N)N)NC(=O)[C@@H](Cc2ccccc2)NC(=O)[C@H](CCCNC(=N)N)NC(=O)[C@@H](C)NC1=O [CTX-1265, Arg-cyclo(Cys-D-Ala-Arg-D-Phe-Arg-D-Phe-Cys)] (Ac-RC[dA]R[dF]R[dF]C-NH2; disulfide 2-8 (inferred)) |  | 0.04 |  |  | 0.02 |  | (60%) | (71%) |
| CC(=O)N[C@H]1CSSC[C@@H](C(N)=O)NC(=O)[C@H](Cc2c[nH]c3ccccc23)NC(=O)[C@H](CCCNC(=N)N)NC(=O)[C@@H](Cc2ccccc2)NC(=O)[C@H](Cc2c[nH]cn2)NC(=O)C(C)(C)NC1=O [CTX-1631, cyclo(Cys-Aib-His-D-Phe-Arg-Trp-Cys)] | 100% | 6.91 | 107% |  | 4.09 |  |  |  |
| CCCC[C@H](NC(=O)[C@H](CCCNC(=N)N)NC(C)=O)C(=O)N[C@H]1CSSC[C@@H](C(N)=O)NC(=O)[C@H](Cc2c[nH]c3ccccc23)NC(=O)[C@H](CCCNC(=N)N)NC(=O)[C@H](Cc2cccc3ccccc23)NC(=O)[C@H](Cc2c[nH]cn2)NC1=O [CTX-1610, Arg-Nle-cyclo(Cys-His-Nal(1′)-Arg-Trp-Cys)] (Ac-R[Nle]CH[1Nal]RWC-NH2; disulfide 3-8) | 67% | 0.66 | 90% |  | 0.03 |  |  |  |
| CC(=O)N[C@H]1CSSC[C@@H](C(N)=O)NC(=O)[C@H](Cc2ccccc2)NC(=O)[C@H](CCCNC(=N)N)NC(=O)[C@@H](Cc2ccccc2)NC(=O)[C@H](CCCNC(=N)N)NC(=O)C(C)(C)NC1=O [CTX-1635, cyclo(Cys-Aib-Arg-D-Phe-Arg-Phe-Cys)] (Ac-C[Aib]R[dF]RFC-NH2; disulfide 1-7 (inferred)) | 70% | 5.7 | 112% |  | 1.19 |  |  |  |
